Test results published in the kinase profiling compilation of Christmann-Franck et al. (2016).

Tests used:
Experiment in all cases: radiometric filter-binding kinase assay
[1] = target: NEK2 (human) (UniProt P51955)
[2] = target: DYRK1A (human) (UniProt Q13627)
[3] = target: MARK4 (human) (UniProt Q96L34)
[4] = target: BTK (human) (UniProt Q06187)
[5] = target: HIPK2 (human) (UniProt Q9H2X6)
[6] = target: EEF2K (human) (UniProt O00418)
[7] = target: EPHB3 (human) (UniProt P54753)
[8] = target: HIPK3 (human) (UniProt Q9H422)
[9] = target: NTRK1 (human) (UniProt P04629)
[10] = target: CSNK2A1 (human) (UniProt P68400)
[11] = target: HIPK1 (human) (UniProt Q86Z02)
[12] = target: EPHB1 (human) (UniProt P54762)
[13] = target: STK3 (human) (UniProt Q13188)
[14] = target: PAK7 (human) (UniProt Q9P286)
[15] = target: MARK3 (human) (UniProt P27448)
[16] = target: ERBB4 (human) (UniProt Q15303)
[17] = target: MAPKAPK2 (human) (UniProt P49137)
[18] = target: JAK2 JH1 JH2 (human) (UniProt O60674)
[19] = target: MINK1 (human) (UniProt Q8N4C8)
[20] = target: MARK2 (human) (UniProt Q7KZI7)
[21] = target: MAPK12 (human) (UniProt P53778)
[22] = target: SYK (human) (UniProt P43405)
[23] = target: PRKCZ (human) (UniProt Q05513)
[24] = target: MAPK13 (human) (UniProt O15264)
[25] = target: ABL1 (human) (UniProt P00519)
[26] = target: CDK2 CCNA2 (human) (UniProt P20248+P24941)
[27] = target: TEK (human) (UniProt Q02763)
[28] = target: CAMKK2 (human) (UniProt Q96RR4)
Chain of CAMKK2 (human) (Q96RR4 whole entry, looked up): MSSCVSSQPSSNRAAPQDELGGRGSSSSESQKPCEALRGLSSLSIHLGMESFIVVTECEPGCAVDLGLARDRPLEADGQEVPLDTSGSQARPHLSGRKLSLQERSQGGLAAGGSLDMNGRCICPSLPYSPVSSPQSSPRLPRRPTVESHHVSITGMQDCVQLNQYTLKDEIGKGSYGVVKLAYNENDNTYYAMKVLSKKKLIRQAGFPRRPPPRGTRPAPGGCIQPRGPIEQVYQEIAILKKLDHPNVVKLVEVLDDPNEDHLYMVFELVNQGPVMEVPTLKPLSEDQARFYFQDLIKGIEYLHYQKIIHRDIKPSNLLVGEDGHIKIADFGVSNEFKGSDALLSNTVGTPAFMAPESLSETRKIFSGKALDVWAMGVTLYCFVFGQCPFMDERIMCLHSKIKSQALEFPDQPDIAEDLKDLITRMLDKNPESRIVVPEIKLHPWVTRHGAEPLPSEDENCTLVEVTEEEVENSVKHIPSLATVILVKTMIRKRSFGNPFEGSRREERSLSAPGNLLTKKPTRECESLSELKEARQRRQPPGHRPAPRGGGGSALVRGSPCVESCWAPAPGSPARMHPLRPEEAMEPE

Chain of HIPK1 (human) (Q86Z02 whole entry, looked up): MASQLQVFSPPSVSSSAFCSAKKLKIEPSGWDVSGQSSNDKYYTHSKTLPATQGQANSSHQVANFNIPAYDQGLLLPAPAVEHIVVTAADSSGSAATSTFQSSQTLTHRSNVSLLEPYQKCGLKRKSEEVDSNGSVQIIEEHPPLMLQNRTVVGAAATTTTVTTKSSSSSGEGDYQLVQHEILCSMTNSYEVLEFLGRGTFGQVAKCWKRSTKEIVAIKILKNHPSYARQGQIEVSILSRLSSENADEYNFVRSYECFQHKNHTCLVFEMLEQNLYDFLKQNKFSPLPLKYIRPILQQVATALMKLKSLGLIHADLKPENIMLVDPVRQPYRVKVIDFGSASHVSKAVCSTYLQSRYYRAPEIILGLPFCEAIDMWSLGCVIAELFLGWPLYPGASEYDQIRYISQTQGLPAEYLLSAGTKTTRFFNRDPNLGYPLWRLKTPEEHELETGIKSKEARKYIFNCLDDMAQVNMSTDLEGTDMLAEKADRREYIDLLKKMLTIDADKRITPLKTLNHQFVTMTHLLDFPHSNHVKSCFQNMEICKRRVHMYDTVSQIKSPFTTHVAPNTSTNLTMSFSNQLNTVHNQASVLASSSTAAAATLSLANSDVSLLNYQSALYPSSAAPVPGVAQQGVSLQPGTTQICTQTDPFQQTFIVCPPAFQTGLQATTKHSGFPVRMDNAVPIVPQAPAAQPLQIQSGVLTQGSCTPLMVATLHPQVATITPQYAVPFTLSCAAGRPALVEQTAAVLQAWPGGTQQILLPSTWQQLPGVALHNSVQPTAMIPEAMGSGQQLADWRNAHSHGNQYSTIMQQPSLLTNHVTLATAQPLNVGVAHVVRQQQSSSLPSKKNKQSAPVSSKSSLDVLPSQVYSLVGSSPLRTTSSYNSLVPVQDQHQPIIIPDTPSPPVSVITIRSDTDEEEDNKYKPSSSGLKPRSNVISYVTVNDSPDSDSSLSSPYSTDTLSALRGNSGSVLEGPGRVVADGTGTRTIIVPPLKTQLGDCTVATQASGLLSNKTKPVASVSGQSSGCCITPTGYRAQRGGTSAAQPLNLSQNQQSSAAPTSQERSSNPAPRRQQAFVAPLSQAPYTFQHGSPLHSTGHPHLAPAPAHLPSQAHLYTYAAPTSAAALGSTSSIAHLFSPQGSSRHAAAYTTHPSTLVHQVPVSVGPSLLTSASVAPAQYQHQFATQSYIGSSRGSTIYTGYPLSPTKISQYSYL
Chain of MAPKAPK2 (human) (P49137 whole entry, looked up): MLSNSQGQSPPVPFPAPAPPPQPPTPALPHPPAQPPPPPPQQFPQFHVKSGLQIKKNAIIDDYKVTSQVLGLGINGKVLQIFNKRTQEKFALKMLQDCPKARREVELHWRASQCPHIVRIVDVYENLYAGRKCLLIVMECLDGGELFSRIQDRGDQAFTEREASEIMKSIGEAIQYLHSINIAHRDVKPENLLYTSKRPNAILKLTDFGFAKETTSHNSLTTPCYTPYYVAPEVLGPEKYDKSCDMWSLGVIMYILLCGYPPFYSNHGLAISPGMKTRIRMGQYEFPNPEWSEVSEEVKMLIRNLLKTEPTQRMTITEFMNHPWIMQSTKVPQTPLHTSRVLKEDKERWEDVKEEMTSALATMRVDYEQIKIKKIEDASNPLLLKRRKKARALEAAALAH
Chain of MARK3 (human) (P27448 whole entry, looked up): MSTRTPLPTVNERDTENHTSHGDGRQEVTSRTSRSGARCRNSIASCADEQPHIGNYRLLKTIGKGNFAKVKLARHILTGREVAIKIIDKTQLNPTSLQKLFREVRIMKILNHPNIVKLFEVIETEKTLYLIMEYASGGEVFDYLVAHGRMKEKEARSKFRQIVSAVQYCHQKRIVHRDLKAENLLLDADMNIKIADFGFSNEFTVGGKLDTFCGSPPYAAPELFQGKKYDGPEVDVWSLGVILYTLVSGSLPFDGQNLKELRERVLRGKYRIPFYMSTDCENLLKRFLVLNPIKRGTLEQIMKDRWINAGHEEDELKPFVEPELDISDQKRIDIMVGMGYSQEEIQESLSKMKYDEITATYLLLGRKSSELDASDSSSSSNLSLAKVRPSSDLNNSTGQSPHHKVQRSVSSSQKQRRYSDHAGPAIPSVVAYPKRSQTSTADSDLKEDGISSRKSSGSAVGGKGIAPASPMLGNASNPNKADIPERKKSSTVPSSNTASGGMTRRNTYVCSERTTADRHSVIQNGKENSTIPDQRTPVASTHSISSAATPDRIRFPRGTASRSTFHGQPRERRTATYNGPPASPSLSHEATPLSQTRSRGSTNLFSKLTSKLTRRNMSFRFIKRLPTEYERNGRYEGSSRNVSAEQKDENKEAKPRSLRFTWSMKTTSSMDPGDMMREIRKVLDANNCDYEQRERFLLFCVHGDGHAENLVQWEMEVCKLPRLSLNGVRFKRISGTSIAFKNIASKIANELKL
Chain of EPHB3 (human) (P54753 whole entry, looked up): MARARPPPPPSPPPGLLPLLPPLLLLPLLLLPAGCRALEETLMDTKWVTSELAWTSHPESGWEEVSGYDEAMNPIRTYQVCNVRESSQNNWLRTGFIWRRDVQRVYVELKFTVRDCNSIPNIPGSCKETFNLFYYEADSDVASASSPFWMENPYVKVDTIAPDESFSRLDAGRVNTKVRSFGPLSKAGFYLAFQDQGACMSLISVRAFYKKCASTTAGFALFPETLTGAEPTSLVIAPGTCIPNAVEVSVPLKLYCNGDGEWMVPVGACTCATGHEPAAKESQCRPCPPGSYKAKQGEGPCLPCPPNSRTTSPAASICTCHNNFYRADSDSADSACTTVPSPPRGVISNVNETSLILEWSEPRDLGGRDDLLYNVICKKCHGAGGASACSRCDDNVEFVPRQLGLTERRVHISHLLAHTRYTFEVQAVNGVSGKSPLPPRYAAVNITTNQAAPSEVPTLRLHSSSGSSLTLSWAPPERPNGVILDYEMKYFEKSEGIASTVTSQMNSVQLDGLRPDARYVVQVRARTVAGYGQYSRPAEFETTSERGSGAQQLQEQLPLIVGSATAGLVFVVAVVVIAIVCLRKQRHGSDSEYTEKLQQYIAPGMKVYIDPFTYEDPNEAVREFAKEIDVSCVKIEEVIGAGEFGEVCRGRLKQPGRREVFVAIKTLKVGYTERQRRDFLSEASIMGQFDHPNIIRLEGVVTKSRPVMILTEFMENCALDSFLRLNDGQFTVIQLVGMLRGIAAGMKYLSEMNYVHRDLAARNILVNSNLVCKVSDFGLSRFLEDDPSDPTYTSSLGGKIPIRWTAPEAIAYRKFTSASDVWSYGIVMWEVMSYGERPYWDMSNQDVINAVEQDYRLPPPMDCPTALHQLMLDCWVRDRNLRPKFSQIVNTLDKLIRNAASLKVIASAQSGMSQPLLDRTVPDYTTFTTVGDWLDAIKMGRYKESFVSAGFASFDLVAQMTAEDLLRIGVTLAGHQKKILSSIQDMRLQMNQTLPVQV
Chain of JAK2 JH1 JH2 (human) (O60674 whole entry, looked up): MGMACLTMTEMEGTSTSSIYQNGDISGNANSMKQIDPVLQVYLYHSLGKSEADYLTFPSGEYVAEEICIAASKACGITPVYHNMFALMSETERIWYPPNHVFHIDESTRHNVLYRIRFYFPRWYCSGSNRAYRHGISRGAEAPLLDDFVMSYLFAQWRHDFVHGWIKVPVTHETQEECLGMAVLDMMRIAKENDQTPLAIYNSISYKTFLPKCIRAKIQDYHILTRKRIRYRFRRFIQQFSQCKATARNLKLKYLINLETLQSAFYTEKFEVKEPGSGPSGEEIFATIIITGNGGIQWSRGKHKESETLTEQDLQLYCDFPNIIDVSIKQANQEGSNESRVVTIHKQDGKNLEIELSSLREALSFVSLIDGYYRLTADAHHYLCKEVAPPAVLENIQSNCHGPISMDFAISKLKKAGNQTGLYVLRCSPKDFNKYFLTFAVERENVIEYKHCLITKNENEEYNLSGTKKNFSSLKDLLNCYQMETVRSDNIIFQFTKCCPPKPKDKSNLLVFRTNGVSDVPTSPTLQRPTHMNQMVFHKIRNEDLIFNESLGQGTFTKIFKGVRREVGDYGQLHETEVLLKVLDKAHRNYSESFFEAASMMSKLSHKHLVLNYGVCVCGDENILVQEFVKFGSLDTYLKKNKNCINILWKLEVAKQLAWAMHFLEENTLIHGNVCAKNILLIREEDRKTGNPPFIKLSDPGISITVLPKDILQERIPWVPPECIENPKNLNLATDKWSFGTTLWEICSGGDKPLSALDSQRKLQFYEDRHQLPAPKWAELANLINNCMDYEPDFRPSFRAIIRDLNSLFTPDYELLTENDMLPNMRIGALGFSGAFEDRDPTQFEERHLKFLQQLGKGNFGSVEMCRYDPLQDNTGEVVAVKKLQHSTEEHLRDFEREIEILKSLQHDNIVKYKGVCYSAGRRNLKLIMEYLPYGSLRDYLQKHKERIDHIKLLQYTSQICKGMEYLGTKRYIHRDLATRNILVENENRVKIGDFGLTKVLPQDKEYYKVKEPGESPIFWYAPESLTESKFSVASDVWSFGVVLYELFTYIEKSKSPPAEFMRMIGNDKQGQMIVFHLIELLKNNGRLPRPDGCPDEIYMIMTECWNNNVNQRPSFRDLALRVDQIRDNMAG

In the case of CCN1CCN(Cc2ccc(NC(=O)c3ccc(C)c(Oc4ccnc5[nH]ccc45)c3)cc2C(F)(F)F)CC1, the residual activity ([1]; compound 0.1 µM) is reported as 112%, the residual activity ([1]; compound 1.0 µM) is reported as 107% and the residual activity ([1]; compound 10.0 µM) is reported as 93.4%. For the same compound, the residual activity ([2]; compound 0.1 µM) was 107%, the residual activity ([2]; compound 1.0 µM) was 97.8% and the residual activity ([2]; compound 10.0 µM) was 84.9%. For the same compound, the residual activity ([3]; compound 0.1 µM) was 116%, the residual activity ([3]; compound 1.0 µM) was 104% and the residual activity ([3]; compound 10.0 µM) was 88.7%. For the same compound, the residual activity ([4]; compound 0.1 µM) was 103%, the residual activity ([4]; compound 1.0 µM) was 85.3% and the residual activity ([4]; compound 10.0 µM) was 34.2%. The residual activity ([5]; compound 0.1 µM) was 105%, the residual activity ([5]; compound 1.0 µM) was 60.3% and the residual activity ([5]; compound 10.0 µM) was 12.6%. It also gave a residual activity ([6]; compound 0.1 µM) of 110%, a residual activity ([6]; compound 1.0 µM) of 102% and a residual activity ([6]; compound 10.0 µM) of 100%. It also gave a residual activity ([7]; compound 0.1 µM) of 96.6%, a residual activity ([7]; compound 1.0 µM) of 29.5% and a residual activity ([7]; compound 10.0 µM) of 7.66%. The residual activity ([8]; compound 0.1 µM) was 110%, the residual activity ([8]; compound 1.0 µM) was 70.3% and the residual activity ([8]; compound 10.0 µM) was 19.8%. The residual activity ([9]; compound 0.1 µM) was 111%, the residual activity ([9]; compound 1.0 µM) was 77.7% and the residual activity ([9]; compound 10.0 µM) was 43.4%. For the same compound, the residual activity ([10]; compound 0.1 µM) was 90.2%, the residual activity ([10]; compound 1.0 µM) was 94.1% and the residual activity ([10]; compound 10.0 µM) was 98.5%. For the same compound, the residual activity ([11]; compound 0.1 µM) was 95%, the residual activity ([11]; compound 1.0 µM) was 70.8% and the residual activity ([11]; compound 10.0 µM) was 28.7%. It also gave a residual activity ([12]; compound 0.1 µM) of 111%, a residual activity ([12]; compound 1.0 µM) of 106% and a residual activity ([12]; compound 10.0 µM) of 66.9%. It also gave a residual activity ([13]; compound 0.1 µM) of 111%, a residual activity ([13]; compound 1.0 µM) of 124% and a residual activity ([13]; compound 10.0 µM) of 91.5%. For the same compound, the residual activity ([14]; compound 0.1 µM) was 108%, the residual activity ([14]; compound 1.0 µM) was 104% and the residual activity ([14]; compound 10.0 µM) was 87.5%. It also gave a residual activity ([15]; compound 0.1 µM) of 112%, a residual activity ([15]; compound 1.0 µM) of 99.5% and a residual activity ([15]; compound 10.0 µM) of 105%. It also gave a residual activity ([16]; compound 0.1 µM) of 105%, a residual activity ([16]; compound 1.0 µM) of 76.8% and a residual activity ([16]; compound 10.0 µM) of 36.9%. For the same compound, the residual activity ([17]; compound 0.1 µM) was 110%, the residual activity ([17]; compound 1.0 µM) was 122% and the residual activity ([17]; compound 10.0 µM) was 113%. It also gave a residual activity ([18]; compound 0.1 µM) of 93.4%, a residual activity ([18]; compound 1.0 µM) of 92.4% and a residual activity ([18]; compound 10.0 µM) of 41.6%. For the same compound, the residual activity ([19]; compound 0.1 µM) was 75.7%, the residual activity ([19]; compound 1.0 µM) was 11.4% and the residual activity ([19]; compound 10.0 µM) was 4.56%. The residual activity ([20]; compound 0.1 µM) was 92.7%, the residual activity ([20]; compound 1.0 µM) was 74.5% and the residual activity ([20]; compound 10.0 µM) was 85.5%. The residual activity ([21]; compound 1.0 µM) was 37.8%, the residual activity ([21]; compound 10.0 µM) was 10.8% and the residual activity ([22]; compound 0.1 µM) was 103%. For the same compound, the residual activity ([22]; compound 1.0 µM) was 47.1%, the residual activity ([22]; compound 10.0 µM) was 11.5% and the residual activity ([23]; compound 0.1 µM) was 99.4%. For the same compound, the residual activity ([23]; compound 1.0 µM) was 96%, the residual activity ([23]; compound 10.0 µM) was 92.7% and the residual activity ([24]; compound 0.1 µM) was 98.7%. It also gave a residual activity ([24]; compound 1.0 µM) of 33.7%, a residual activity ([24]; compound 10.0 µM) of 7.2% and a residual activity ([25]; compound 0.1 µM) of 51.4%. For the same compound, the residual activity ([25]; compound 1.0 µM) was 3.77%, the residual activity ([25]; compound 10.0 µM) was 0.874% and the residual activity ([26]; compound 0.1 µM) was 110%. It also gave a residual activity ([26]; compound 1.0 µM) of 112%, a residual activity ([26]; compound 10.0 µM) of 99.9% and a residual activity ([27]; compound 0.1 µM) of 95.2%. For the same compound, the residual activity ([27]; compound 1.0 µM) was 91.2%, the residual activity ([27]; compound 10.0 µM) was 60.4% and the residual activity ([28]; compound 0.1 µM) was 98.3%. It also gave a residual activity ([28]; compound 1.0 µM) of 70.7% and a residual activity ([28]; compound 10.0 µM) of 20.7%.
